Laboratory results from patent US12655116B2, “Substituted isophthalic acid diamides” (Bayer Aktiengesellschaft, priority 2020, dated 2026).

Tests used:
[1] = test system: ABUTH; assay: Pre-emergence herbicidal action against ABUTH; assay type: in vivo, Abutilon theophrasti; details: for Pre-emergence action against ABUTH (herbicidal activity): 80 g/ha, scored visually after 3 weeks vs untreated controls (100% = plants have died, 0% = like control plants); for Pre-emergence action against ABUTH (herbicidal activity in percent): dosage 20 g/ha, scored visually after 3 weeks vs untreated controls, 100% = plants have died, 0% = like control plants
Method in brief: (§1)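 Sandy loam pots, seeds covered with soil, then surface-treated with WP or EC formulations at 600–800 l/ha water plus 0.2% wetting agent. Greenhouse, 3 weeks. Percent damage vs untreated controls.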

[2] = test system: ALOMY; assay: Pre-emergence herbicidal action against ALOMY; assay type: in vivo, Alopecurus myosuroides; details: 80 g/ha, pre-emergence, scored visually after 3 weeks vs untreated controls (100% = plants have died, 0% = like control plants)
Method in brief: as §1

[3] = test system: AMARE; assay: Pre-emergence herbicidal action against AMARE; assay type: in vivo, Amaranthus retroflexus
Method in brief: as §1

[4] = test system: ECHCG; assay: Pre-emergence herbicidal action against ECHCG; assay type: in vivo, Echinochloa crus-galli
Method in brief: as §1

[5] = test system: MATIN; assay: Pre-emergence herbicidal action against MATIN; assay type: in vivo, Matricaria inodora
Method in brief: as §1

[6] = test system: SETVI; assay: Pre-emergence herbicidal action against SETVI; assay type: in vivo, Setaria viridis
Method in brief: as §1

[7] = test system: STEME; assay: Pre-emergence herbicidal action against STEME; assay type: in vivo, Stellaria media
Excerpt: Seeds of monocotyledonous and dicotyledonous weed plants and crop plants are laid out in sandy loam soil in wood-fiber pots and covered with soil. The compounds of the invention, formulated in the form of wettable powders (WP) or as emulsion concentrates (EC), are then applied to the surface of the covering soil in the form of an aqueous suspension or emulsion at a water application rate equivalent to 600 to 800 l/ha, with addition of 0.2% wetting agent. After the treatment, the pots are placed in a greenhouse and kept under good growth conditions for the trial plants. The damage to the test plants is scored visually after a test period of 3 weeks by comparison with untreated controls (herbicidal activity in percent (%): 100% activity=the plants have died, 0% activity=like control plants). […] The tables below illustrate, in an illustrative manner, the post-emergence herbicidal action of the compounds of the invention, the herbicidal activity being stated in percent.

[8] = test system: DIGSA; assay: Pre-emergence herbicidal action against DIGSA; assay type: in vivo, Digitaria sanguinalis
Method in brief: as §1

[9] = test system: ABUTH; assay: Post-emergence herbicidal action against ABUTH; assay type: in vivo, Abutilon theophrasti; details: visual assessment about 3 weeks after treatment vs untreated controls
Method in brief: (§2)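 Visual % rating (0% = as untreated, 100% = dead) ~3 wk after spraying one-leaf-stage plants grown in sandy loam; WP/EC in water at 600–800 l/ha, 0.2% wetting agent.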

[10] = test system: ALOMY; assay: Post-emergence herbicidal action against ALOMY; assay type: in vivo, Alopecurus myosuroides; details: dosage 20 g/ha, visual assessment about 3 weeks after treatment vs untreated controls
Method in brief: as §2

[11] = test system: AMARE; assay: Post-emergence herbicidal action against AMARE; assay type: in vivo, Amaranthus retroflexus; details: 20 g/ha, visual assessment about 3 weeks after treatment, 100% = plants have died, 0% = like control plants
Method in brief: as §2

[12] = test system: ECHCG; assay: Post-emergence herbicidal action against ECHCG; assay type: in vivo, Echinochloa crus-galli
Method in brief: as §2

[13] = test system: SETVI; assay: Post-emergence herbicidal action against SETVI; assay type: in vivo, Setaria viridis
Method in brief: as §2

[14] = test system: STEME; assay: Post-emergence herbicidal action against STEME; assay type: in vivo, Stellaria media
Description: Seeds of monocotyledonous and dicotyledonous weed and crop plants are laid out in sandy loam soil in wood-fiber pots, covered with soil and cultivated in a greenhouse under good growth conditions. 2 to 3 weeks after sowing, the test plants are treated at the one-leaf stage. The compounds of the invention, formulated in the form of wettable powders (WP) or as emulsion concentrates (EC), are then sprayed onto the green parts of the plants in the form of an aqueous suspension or emulsion at a water application rate equivalent to 600 to 800 l/ha, with addition of 0.2% wetting agent. After the test plants have been left to stand in the greenhouse under optimal growth conditions for about 3 weeks, the action of the preparations is assessed visually in comparison to untreated controls (herbicidal action in percent (%): 100% activity=the plants have died, 0% activity=like control plants). […] The tables below illustrate, in an illustrative manner, the post-emergence herbicidal action of the compounds of the invention, the herbicidal activity being stated in percent.

[15] = test system: DIGSA; assay: Post-emergence herbicidal action against DIGSA; assay type: in vivo, Digitaria sanguinalis; details: for Post-emergence action against DIGSA in %: 5 g/ha; for Post-emergence action against DIGSA: 20 g/ha
Method in brief: as §2

[16] = test system: VIOTR; assay: Pre-emergence herbicidal action against VIOTR; assay type: in vivo, Viola tricolor
Method in brief: as §1

[17] = test system: AVEFA; assay: Pre-emergence herbicidal action against AVEFA; assay type: in vivo, Avena fatua; details: 80 g/ha, pre-emergence
Method in brief: as §1

[18] = test system: PHBPU; assay: Pre-emergence herbicidal action against PHBPU; assay type: in vivo, Pharbitis purpurea; details: dosage 80 g/ha
Method in brief: as §1

[19] = test system: POLCO; assay: Pre-emergence herbicidal action against POLCO; assay type: in vivo, Polygonum convolvulus; details: dosage 80 g/ha
Method in brief: as §1

[20] = test system: VERPE; assay: Pre-emergence herbicidal action against VERPE; assay type: in vivo, Veronica persica; details: dosage 80 g/ha
Method in brief: as §1

[21] = test system: AVEFA; assay: Post-emergence herbicidal action against AVEFA; assay type: in vivo, Avena fatua; details: 20 g/ha, visual assessment about 3 weeks after treatment, 100% = plants have died, 0% = like control plants
Method in brief: as §2

[22] = test system: MATIN; assay: Post-emergence herbicidal action against MATIN; assay type: in vivo, Matricaria inodora
Method in brief: as §2

[23] = test system: PHBPU; assay: Post-emergence herbicidal action against PHBPU; assay type: in vivo, Pharbitis purpurea
Method in brief: as §2

[24] = test system: VERPE; assay: Post-emergence herbicidal action against VERPE; assay type: in vivo, Veronica persica; details: 20 g/ha
Method in brief: as §2

[25] = test system: VIOTR; assay: Post-emergence herbicidal action against VIOTR; assay type: in vivo, Viola tricolor
Method in brief: as §2

[26] = 20 g/ha, scored visually after 3 weeks vs untreated controls, 100% = plants have died, 0% = like control plants
[27] = 80 g/ha, scored visually after 3 weeks vs untreated controls (100% = plants have died, 0% = like control plants)

Structure (SMILES) | Pre-emergence action against ABUTH (herbicidal activity) [1] | Pre-emergence action against ABUTH (herbicidal activity in percent) [1] | Pre-emergence action against ALOMY (herbicidal activity) [2] | Pre-emergence action against AMARE in % [3, 26] | Pre-emergence action against AMARE in % [3, 27] | Pre-emergence action against ECHCG in % ([4]; 80 g/ha) | Pre-emergence action against MATIN in % ([5]; dosage 20 g/ha) | Pre-emergence action against MATIN in % ([5]; dosage 80 g/ha) | Pre-emergence action against SETVI in % ([6]; dosage 80 g/ha) | Pre-emergence action against DIGSA in % ([8]; dosage 20 g/ha) | Pre-emergence action against DIGSA in % ([8]; dosage 80 g/ha) | Post-emergence action against ABUTH in % ([9]; dosage 5 g/ha) | Post-emergence action against ABUTH in % ([9]; dosage 20 g/ha) | Post-emergence action against ALOMY in % [10] | Post-emergence action at 20 g/ha against AMARE in % [11] | Post-emergence action against ECHCG in % ([12]; dosage 5 g/ha) | Post-emergence action against ECHCG in % ([12]; dosage 20 g/ha) | Post-emergence action against SETVI in % ([13]; dosage 20 g/ha) | Post-emergence action against STEME in % ([14]; 20 g/ha) | Post-emergence action against DIGSA in % [15] | other results
CCc1c(C(=O)Nc2nnc(C)o2)ccc(C(F)(F)F)c1C(=O)NC1CC1 [Example 6-212] | 90% | 80% | 80% | 90% | 90% | 90% | 80% | 90% | 90% | 100% | 100% | 80% | 90% | 80% | 90% | 90% | 90% | 80% | 90% | 80% | Pre-emergence action against STEME in % ([7]; dosage 20 g/ha): 80%; Pre-emergence action against STEME in % ([7]; dosage 80 g/ha): 90%; Post-emergence action against STEME in % ([14]; dosage 5 g/ha): 80%; Post-emergence action against DIGSA [15]: 90%
Cc1nnc(NC(=O)c2ccc(C(F)F)c(C(=O)NC3CC3)c2C)o1 [Example 6-33] | 90% | – | – | 90% | 100% | 100% | 80% | 90% | 100% | 80% | 100% | – | 80% | – | 90% | – | 80% | 80% | 80% | – | Pre-emergence action against VIOTR in % ([16]; dosage 80 g/ha): 100%; Post-emergence action against SETVI in % ([13]; dosage 5 g/ha): 80%
CCNC(=O)c1c(C(F)(F)F)ccc(C(=O)Nc2nnnn2CC)c1OC [Example 2-57] | 100% | 100% | 90% | 100% | 100% | 100% | 90% | 100% | 100% | 100% | 100% | 90% | 100% | 90% | 100% | 100% | 100% | 100% | – | 90% | Pre-emergence action against AVEFA in % [17]: 90%; Pre-emergence action against ECHCG in % ([4]; 20 g/ha): 90%; Pre-emergence action against PHBPU in % [18]: 80%; Pre-emergence action against POLCO in % [19]: 90%; Pre-emergence action against SETVI in % ([6]; dosage 20 g/ha): 80%; Pre-emergence action against VERPE in % [20]: 90%; Pre-emergence action against VIOTR in % ([16]; dosage 20 g/ha): 100%; Pre-emergence action against VIOTR in % ([16]; dosage 80 g/ha): 100%; Post-emergence action at 20 g/ha against AVEFA in % [21]: 80%; Post-emergence action against MATIN in % ([22]; dosage 5 g/ha): 80%; Post-emergence action against MATIN in % ([22]; dosage 20 g/ha): 90%; Post-emergence action against PHBPU in % ([23]; dosage 5 g/ha): 80%; Post-emergence action against PHBPU in % ([23]; dosage 20 g/ha): 90%; Post-emergence action against SETVI in % ([13]; dosage 5 g/ha): 100%; Post-emergence action against VERPE in % [24]: 90%; Post-emergence action against VIOTR in % ([25]; 5 g/ha): 90%; Post-emergence action against VIOTR in % ([25]; 20 g/ha): 100%; Post-emergence action against DIGSA [15]: 100%
